In paper PMC5656322, “BAK1 is involved in AtRALF1-induced inhibition of root cell expansion” (PLoS Genetics, 2017):
Entries after “also recorded” stand apart in the source; their conditions may differ. Where no end group is shown, it is not given here.

How the values were obtained:
[1] = system: BAK1; test: BAK1 phosphorylation assay, anti-phosphoserine; type: in vivo, Arabidopsis thaliana; details: pBAK1:BAK1-6xHA roots; 1, 2 and 10 μM, 20 min
Procedure: Transgenic plants pBAK1:BAK1-6xHA were grown in vertical plates for 10–15 days. The plants were treated with 0.1 μM BL, 2 μM RALF1(9–49), 1 μM, 2 μM or 10 μM AtRALF1 for 20 min. The roots were isolated, and the microsomal fractions were obtained as described above. The microsomal fractions were incubated with anti-HA beads (EZview Red Anti-HA Affinity Gel, Sigma) for 2 h at 4 °C to immunoprecipitate the BAK1 protein. The unbound materials were removed by washing 3 times. Proteins were separated by SDS/PAGE and further analyzed by protein blotting using anti-HA (Thermo Scientific), or anti-phosphothreonine (Novus Biologicals), or anti-phosphoserine (Novus Biologicals) antibodies.

[2] = system: Arabidopsis seedlings, primary root; test: Root growth inhibition assay, vertical plates; type: in vivo, Arabidopsis thaliana
Procedure: (A) and (B) Arabidopsis seedlings (2 days old) were treated with 10 μM AtRALF1 or water (H20) for 2 days. The values are the mean ± SD of at least 25 seedlings. Triple asterisks indicate P < 0.01 (Student’s t test); ns, not significant. (C) Four-day-old seedlings were transferred to media containing different concentrations of AtRALF1, and the primary root length was measured after 8 days of treatment. The data represent the mean value ± SD of 30 seedlings. […] Representative Arabidopsis seedlings after 8 days of treatment with AtRALF1 are shown below. Seedlings were arranged on plates after the treatment for imaging. Scale bars, 1 cm. (D) Two-day-old seedlings were treated with 10 μM AtRALF1 or water for 2 days, and root cell length was measured after 2 days of treatment. Cells from the root endodermis in the differentiation zone were measured. The values are the mean ± SD of approximately 150 cells. Triple asterisks indicate P < 0.01 (Student’s t test); ns, not significant.
Aliquots of 1 ml of medium containing seeds were distributed into 24-well plates. The peptides (10 μM) were added after 2 days, and the root length was measured 2 days after treatment. To maximize root growth, the seeds were germinated in vertical plates. […] The root length was measured 8 days after treatment unless stated otherwise. Control plants were grown under identical conditions in a peptide-free medium. Quantitative data were obtained as previously described. […] The data from one representative experiment are shown. For cell length measurements, AtRALF1 peptide (10 μM) was added after 2 days of germination, and the cell length was measured after 2 days of treatment. The cell wall was stained with a 1 mg ml^-1 propidium iodide solution (Sigma) in the dark for 15 min and washed twice with water. Cells of the endodermis of the root differentiation zone were imaged and measured using confocal microscopy (Olympus FV1000). Approximately 30 plants from each genetic background and at least 5 cells per root were measured. The wavelengths for excitation and emission were 555 and 655 nm, respectively. Image processing was completed using the Olympus FluoView software.
Supplementary file pgen.1007053.s004.pdf: S4 Fig Analyses of root growth of Arabidopsis seedlings treated with AtRALF1 peptide for 8 days and evaluated daily. Four-day-old seedlings were transferred to media containing different concentrations of AtRALF1, and the primary root length was measured daily during the 8 days of treatment. Genotypes Wt, bak1-1, bak1-3 and bak1-4 are indicated on top of each series of graphics. The seedlings were treated with 0, 0.5, 1, 5 and 10 μM AtRALF1. The data represent the mean values ± SD of 30 seedlings. Double and triple asterisks indicate P < 0.05 and P <0.01, respectively (Student’s t test); ns, not significant. (PDF) Click here for additional data file.
Four-day-old seedlings were transferred to medium containing 10 μM AtRALF1, and the primary root length was measured after 8 days of treatment. The data represent the mean value ± SD of 20 seedlings. Triple asterisks indicate P < 0.01 (Student’s t test); ns, not significant. Representative Arabidopsis seedlings after 8 days of treatment with AtRALF1 are shown. The seedlings were arranged on plates after the treatment for imaging. Scale bars, 1 cm. (PDF) Click here for additional data file.
Four-day-old seedlings were transferred to medium containing 0.1 μM BAP, and the primary root length was measured after 8 days of treatment. The data represent the mean value ± SD of 10 seedlings.

## AtRALF1: root-specific RALF isoform in Arabidopsis; recombinant peptide hormone produced in E. coli (ATTKYISYQSLKRNSVPCSRRGASYYNCQNGAQANPYSRGCSKIARCRS; ends and bridges not checked; cysteine pairing not given here)
[1]
  BAK1 serine phosphorylation: no changes were detected
[2]; 8 days of treatment, bak1-1, bak1-3, bak1-4 mutants
  sensitivity of root growth: insensitive to the AtRALF1 peptide
[2]; bak1-mutant lines, 8-day treatment, 0-10 μM
  daily root growth: No differences were observed in the daily root growth
[2]; bak1 mutants, 8 days
  highest concentration to which bak1 mutants are insensitive: ≥ 10 µM
[2]; bak1 mutants, side by side with fer4, 8 days
  sensitivity of root growth: insensitive to any tested concentrations of the peptide
[2]; bak7 mutant, 10 μM, 8 days
  primary root growth inhibition: inhibited primary root growth
[2]; fer4 mutant, side by side with bak1 mutants, 8 days
  sensitivity of root growth: conditional insensitivity to AtRALF1 treatment; also recorded: insensitive to AtRALF1 peptide in low concentrations only
[2]; wild-type, 0.5-10 μM tested, P < 0.05 / 0.01
  dose with significant differences in root growth by the third day of treatment: ≥ 1 µM
